Literature values in patent US20010039006A1, “Toxicity typing using embryoid bodies” (priority 1998, published 2001).
Read-outs that look alike come from different tables or passages of the source.

Experiments:
[1] = for liver toxicity: known toxicity of the marketed drug
[2] = human, in vivo
[3] = in vivo
[4] = human, in vivo; remark: listed apart in the source

## CC(=O)Nc1ccc(O)cc1 [acetominophen]
[1]; human, in vivo
  TOXICITIES LIVER: +

## c1ccc2c(c1)cc1ccc3cccc4ccc2c1c34 [benzo(a)pyrene]
[2]
  TOXICITIES CV: +

## N.N.O=C([O-])C1(C(=O)[O-])CCC1.[Pt+2] [carboplatin]
[3]
  TOXICITIES GI: +

## CCOC(=O)C(C)(C)Oc1ccc(Cl)cc1 [clofibrate]
[1]; Table 1
  TOXICITIES LIVER: ntc

## N=C(N)NCCCCCCC(=O)NC(O)C(=O)NCCCCNCCCN (stereo not drawn) [deoxyspergualin]
[2]
  TOXICITIES CV: +

## CCC(=O)O[C@H]1[C@H](O[C@@H]2[C@@H](C)[C@H](O[C@H]3C[C@@](C)(OC)[C@@H](O)[C@H](C)O3)[C@@H](C)C(=O)O[C@H](CC)[C@@](C)(O)[C@H](O)[C@@H](C)C(=O)[C@H](C)C[C@@]2(C)O)O[C@H](C)C[C@@H]1N(C)C [erythromycin estolate]
[1]
  liver toxicity: known liver toxicity

## COc1nc(C(Cl)(Cl)Cl)c(Cl)c(OC)c1Cl [penclomedine]
[4]
  TOXICITIES CNS: +

## CN(CCOc1ccc(CC2SC(=O)NC2=O)cc1)c1ccccn1 (stereo not drawn) [rosiglitazone]
[1]; Table 1
  TOXICITIES LIVER: ntc

## Cc1c(C)c2c(c(C)c1O)CCC(C)(COc1ccc(CC3SC(=O)NC3=O)cc1)O2 (stereo not drawn) [troglitazone]
[1]
  liver toxicity: rare but severe liver toxicity
